From US10314806B2 (SICHUAN JIUZHANG BIOLOGICAL SCIENCE AND TECHNOLOGY CO., LTD., priority 2014, dated 2019)

What was measured:
Type in all cases: in vivo
Lewis lung cancer = assay: Inhibition of mice-transplanted tumor of Lewis lung cancer C57BL/6; conditions: for Inhibitory rate / Tumor weight: 12 times
Protocol: Animal C57BL/6 mice, body weight 13˜20 g, half male and half female.
Cell Lines Lewis cells were mice lung cancer cells, and grew adhering to the wall in RPMI-1640 media containing 10% calf serum, 100 U·ml^−1 penicillin, 100 μg·ml^−1 streptomycin, and were cultured in an incubator at 37° C. under 5% CO2, followed by changing the medium and subculturing every two or three days.
(§1) Viable cells were counted by trypan blue staining. Cell suspension was subcutaneously inoculated at the left forelimb armpit of mice at 0.2 ml/animal (containing about 1×10^7 cells), and after tumor grew to 1 cm×1 cm×1 cm, mice were used in experiment. Mice tumors were aseptically stripped, and washed with Hank's solution thrice, to remove blood, fat and necrotic tissues. Tumors were cut to broken pieces of 1 mm×1 mm×1 mm, and washed with Hank's solution twice, to which physiological saline was added at a ratio of (1 g:3 ml), and then ground in a glass homogenizer and filtered by 80-100 mesh sieve to make a suspension of single cell. Viable cells were counted by trypan blue staining.
On the second day after inoculation, a dosage of 0.2 ml·10 g^−1 was administrated to each group by peritoneal injection (ip) for successive 12 times, once a day. When the tumor weight in negative control group was more than 1.0 g (tumor volume being about 0.5 cm^3), the experiment was stopped, and mice were sacrificed by cervical vertebrae removal and weighed. Tumors were stripped to calculate inhibitory rate.

H22 liver cancer = assay: Inhibition of KM mice-transplanted tumor of H22 liver cancer
Protocol: (1) Animal Kunming mice, half male and half female, body weight 16˜27 g.
Cell Lines H22 cell lines were mice liver cancer cells, and were subjected to suspension growth in RPMI-1640 media containing 10% calf serum, 100 U·ml^−1 penicillin, 100 μg·ml^−1 streptomycin, and cultured in an incubator at 37° C. under 5% CO2, followed by changing the medium and subculturing every two or three days.
Cell Culture H22 cells in exponential phase of growth were collected, centrifugated at 1000 rpm for 5 min, and washed twice. Viable cells were counted by trypan blue staining. The cells were quickly inoculated in abdominal cavity of KM mice, and after 7˜10 days, ascites were drawn and subcutaneously inoculated at the left forelimb armpit of mice at 0.2 ml/animal (containing about 2×10^7 cells). When tumor grew to 1 cm×1 cm×1 cm, mice were used in experiment. Mice tumors were aseptically stripped, and washed with Hank's solution thrice, to remove blood, fat and necrotic tissues. Tumors were cut to broken pieces of 1 mm×1 mm×1 mm, and washed with Hank's solution twice, to which physiological saline was added at a ratio of (1 g:3 ml), and then ground in a glass homogenizer and filtered by 80-100 mesh sieve to make a suspension of single cell. Viable cells were counted by trypan blue staining.
On the second day after inoculation, a dosage of 0.2 ml·10 g^−1 was administrated by intravenous injection (iv), once a day. When the average tumor weight in negative group was more than 1.0 g (tumor volume being about 0.5 cm^3), the experiment was stopped, and mice were sacrificed by cervical vertebrae removal and weighed. Tumors were stripped to calculate inhibitory rate.

EMT-6 breast cancer = assay: Inhibition of BABLc mice-transplanted tumor of EMT-6 breast cancer; conditions: for Inhibitory rate / Tumor weight: 9 days
Protocol: (1) Animal BABLc mice, ♀, body weight 17˜21 g
Cell Lines EMT-6 cell lines were mice breast cancer cells, and grew adhering to the wall in RPMI-1640 complete media containing 10% calf serum, 1 mmol/L glutamine, 100 U·ml^−1 penicillin and 100 μg·ml^−1 streptomycin, and were cultured in an incubator at 37° C. under 5% CO2, followed by changing the medium and subculturing every two or three days.
as §1
On the second day after inoculation, a dosage of 0.2 ml·10 g^−1 was administrated to each group by intraperitoneal injection (ip) for successive 9 days, once a day. When the tumor weight in negative group was more than 1.0 g(tumor volume being about 0.5 cm^3), the experiment was stopped, and mice were sacrificed by cervical vertebrae removal and weighed. Tumors were stripped to calculate inhibitory rate.

[1] = compared with the negative control group, obvious in the dosage groups of 10 mg/kg-60 mg/kg

Q: Which Inhibitory rate (Lewis lung cancer; 1 mg·kg^−1 ip once a day) does the source give for O=C(/C=C/c1ccc(O)c(O)c1)O[C@@H]1C[C@](O)(C(=O)O)C[C@@H](O)[C@H]1O [Chlorogenic acid of the present invention] here?
A: Its Inhibitory rate is 2.6%.

Q: And the Tumor weight (Lewis lung cancer; 1 mg·kg^−1 ip once a day)?
A: Its Tumor weight is 1.445 ± 0.772 g.

Q: What about the Inhibitory rate (Lewis lung cancer; 5 mg·kg^−1 ip once a day) of the same molecule?
A: Its Inhibitory rate is 14.2%.

Q: And the Tumor weight (Lewis lung cancer; 5 mg·kg^−1 ip once a day)?
A: Its Tumor weight is 1.273 ± 0.258 g.

Q: What about the Inhibitory rate (Lewis lung cancer; 10 mg·kg^−1 ip once a day) of the same molecule?
A: Its Inhibitory rate is 56.5%.

Q: And the Tumor weight (Lewis lung cancer; 10 mg·kg^−1 ip once a day)?
A: The Tumor weight was 0.646 ± 0.230 g.

Q: And the Inhibitory rate (Lewis lung cancer; 20 mg·kg^−1 ip once a day)?
A: The Inhibitory rate was 74.6%.

Q: And the Inhibitory rate (Lewis lung cancer; 30 mg·kg^−1 ip once a day)?
A: Its Inhibitory rate is 78.3%.

Q: What about the Tumor weight (Lewis lung cancer; 30 mg·kg^−1 ip once a day) of the same molecule?
A: The Tumor weight was 0.322 ± 0.111 g.

Q: And the Inhibitory rate (Lewis lung cancer; 40 mg·kg^−1 ip once a day)?
A: The Inhibitory rate was 76.4%.

Q: What about the Tumor weight (Lewis lung cancer; 40 mg·kg^−1 ip once a day) of the same molecule?
A: Its Tumor weight is 0.350 ± 0.078 g.

Q: And the Inhibitory rate (Lewis lung cancer; 50 mg·kg^−1 ip once a day)?
A: Its Inhibitory rate is 65.6%.

Q: And the Tumor weight (Lewis lung cancer; 50 mg·kg^−1 ip once a day)?
A: The Tumor weight was 0.510 ± 0.241 g.

Q: What about the Inhibitory rate (Lewis lung cancer; 60 mg·kg^−1 ip once a day) of the same molecule?
A: Its Inhibitory rate is 59.2%.

Q: What about the Tumor weight (Lewis lung cancer; 60 mg·kg^−1 ip once a day) of the same molecule?
A: The Tumor weight was 0.605 ± 0.363 g.

Q: And the Inhibitory rate (Lewis lung cancer; 70 mg·kg^−1 ip once a day)?
A: The Inhibitory rate was 32.3%.

Q: And the Tumor weight (Lewis lung cancer; 70 mg·kg^−1 ip once a day)?
A: The Tumor weight was 1.005 ± 0.657 g.

Q: What about the Inhibitory rate (Lewis lung cancer; 80 mg·kg^−1 ip once a day) of the same molecule?
A: The Inhibitory rate was 24.8%.

Q: What about the Inhibitory rate (Lewis lung cancer; 90 mg·kg^−1 ip once a day) of the same molecule?
A: The Inhibitory rate was 17.6%.

Q: What about the Tumor weight (Lewis lung cancer; 90 mg·kg^−1 ip once a day) of the same molecule?
A: The Tumor weight was 1.223 ± 0.314 g.

Q: What about the Inhibitory rate (Lewis lung cancer; 100 mg·kg^−1 ip once a day) of the same molecule?
A: The Inhibitory rate was 11.3%.

Q: What about the Tumor weight (Lewis lung cancer; 100 mg·kg^−1 ip once a day) of the same molecule?
A: The Tumor weight was 1.316 ± 0.352 g.

Q: And the “inhibitory action on mice-transplanted tumor of Lewis lung cancer C57BL/6” value (Lewis lung cancer; [1])?
A: The value was “obviously inhibitory action”.

Q: And the Inhibitory rate (H22 liver cancer; 1 mg·kg^−1 iv once a day)?
A: The Inhibitory rate was 8.8%.

Q: What about the Tumor weight (H22 liver cancer; 1 mg·kg^−1 iv once a day) of the same molecule?
A: Its Tumor weight is 2.141 ± 0.333 g.

Q: What about the Inhibitory rate (H22 liver cancer; 5 mg·kg^−1 iv once a day) of the same molecule?
A: Its Inhibitory rate is 24.7%.

Q: And the Tumor weight (H22 liver cancer; 5 mg·kg^−1 iv once a day)?
A: The Tumor weight was 1.768 ± 0.667 g.

Q: What about the Inhibitory rate (H22 liver cancer; 10 mg·kg^−1 iv once a day) of the same molecule?
A: Its Inhibitory rate is 46.3%.

Q: What about the Tumor weight (H22 liver cancer; 10 mg·kg^−1 iv once a day) of the same molecule?
A: The Tumor weight was 1.261 ± 0.388 g.

Q: And the Inhibitory rate (H22 liver cancer; 20 mg·kg^−1 iv once a day)?
A: The Inhibitory rate was 54.8%.

Q: What about the Inhibitory rate (H22 liver cancer; 30 mg·kg^−1 iv once a day) of the same molecule?
A: The Inhibitory rate was 67.9%.

Q: What about the Tumor weight (H22 liver cancer; 30 mg·kg^−1 iv once a day) of the same molecule?
A: The Tumor weight was 0.754 ± 0.071 g.

Q: And the Inhibitory rate (H22 liver cancer; 40 mg·kg^−1 iv once a day)?
A: The Inhibitory rate was 72.2%.

Q: And the Tumor weight (H22 liver cancer; 40 mg·kg^−1 iv once a day)?
A: The Tumor weight was 0.653 ± 0.238 g.

Q: What about the Inhibitory rate (H22 liver cancer; 50 mg·kg^−1 iv once a day) of the same molecule?
A: The Inhibitory rate was 57.5%.

Q: And the Tumor weight (H22 liver cancer; 50 mg·kg^−1 iv once a day)?
A: The Tumor weight was 0.998 ± 0.207 g.

Q: And the Inhibitory rate (H22 liver cancer; 60 mg·kg^−1 iv once a day)?
A: Its Inhibitory rate is 42.9%.

Q: And the Tumor weight (H22 liver cancer; 60 mg·kg^−1 iv once a day)?
A: The Tumor weight was 1.341 ± 0.356 g.

Q: What about the Inhibitory rate (H22 liver cancer; 70 mg·kg^−1 iv once a day) of the same molecule?
A: Its Inhibitory rate is 31.9%.

Q: And the Inhibitory rate (H22 liver cancer; 80 mg·kg^−1 iv once a day)?
A: The Inhibitory rate was 24.1%.

Q: And the Tumor weight (H22 liver cancer; 80 mg·kg^−1 iv once a day)?
A: Its Tumor weight is 1.782 ± 0.122 g.

Q: What about the Inhibitory rate (H22 liver cancer; 90 mg·kg^−1 iv once a day) of the same molecule?
A: The Inhibitory rate was 16.7%.

Q: What about the Tumor weight (H22 liver cancer; 90 mg·kg^−1 iv once a day) of the same molecule?
A: Its Tumor weight is 1.956 ± 0.581 g.

Q: What about the Inhibitory rate (H22 liver cancer; 100 mg·kg^−1 iv once a day) of the same molecule?
A: The Inhibitory rate was 11.5%.

Q: What about the Tumor weight (H22 liver cancer; 100 mg·kg^−1 iv once a day) of the same molecule?
A: Its Tumor weight is 2.078 ± 0.326 g.

Q: And the “inhibitory action on KM mice-transplanted tumor of H22 liver cancer” value (H22 liver cancer; [1])?
A: The value was “obviously inhibitory action”.

Q: And the Inhibitory rate (EMT-6 breast cancer; 1 mg·kg^−1 ip once a day)?
A: Its Inhibitory rate is 26.40%.

Q: What about the Tumor weight (EMT-6 breast cancer; 1 mg·kg^−1 ip once a day) of the same molecule?
A: Its Tumor weight is 0.987 ± 0.154 g.

Q: What about the Inhibitory rate (EMT-6 breast cancer; 5 mg·kg^−1 ip once a day) of the same molecule?
A: The Inhibitory rate was 41.16%.

Q: And the Tumor weight (EMT-6 breast cancer; 5 mg·kg^−1 ip once a day)?
A: Its Tumor weight is 0.789 ± 0.087 g.

Q: What about the Inhibitory rate (EMT-6 breast cancer; 10 mg·kg^−1 ip once a day) of the same molecule?
A: Its Inhibitory rate is 48.55%.

Q: What about the Tumor weight (EMT-6 breast cancer; 10 mg·kg^−1 ip once a day) of the same molecule?
A: Its Tumor weight is 0.690 ± 0.188 g.

Q: What about the Inhibitory rate (EMT-6 breast cancer; 20 mg·kg^−1 ip once a day) of the same molecule?
A: Its Inhibitory rate is 69.95%.

Q: What about the Inhibitory rate (EMT-6 breast cancer; 30 mg·kg^−1 ip once a day) of the same molecule?
A: Its Inhibitory rate is 68.01%.

Q: And the Inhibitory rate (EMT-6 breast cancer; 40 mg·kg^−1 ip once a day)?
A: Its Inhibitory rate is 66.37%.

Q: And the Tumor weight (EMT-6 breast cancer; 40 mg·kg^−1 ip once a day)?
A: Its Tumor weight is 0.451 ± 0.097 g.

Q: And the Inhibitory rate (EMT-6 breast cancer; 50 mg·kg^−1 ip once a day)?
A: Its Inhibitory rate is 60.55%.

Q: What about the Tumor weight (EMT-6 breast cancer; 50 mg·kg^−1 ip once a day) of the same molecule?
A: Its Tumor weight is 0.529 ± 0.168 g.

Q: What about the Inhibitory rate (EMT-6 breast cancer; 60 mg·kg^−1 ip once a day) of the same molecule?
A: The Inhibitory rate was 49.22%.

Q: And the Tumor weight (EMT-6 breast cancer; 60 mg·kg^−1 ip once a day)?
A: The Tumor weight was 0.681 ± 0.156 g.

Q: What about the Inhibitory rate (EMT-6 breast cancer; 70 mg·kg^−1 ip once a day) of the same molecule?
A: The Inhibitory rate was 47.95%.

Q: What about the Tumor weight (EMT-6 breast cancer; 70 mg·kg^−1 ip once a day) of the same molecule?
A: The Tumor weight was 0.698 ± 0.112 g.

Q: What about the Inhibitory rate (EMT-6 breast cancer; 80 mg·kg^−1 ip once a day) of the same molecule?
A: Its Inhibitory rate is 41.16%.

Q: What about the Tumor weight (EMT-6 breast cancer; 80 mg·kg^−1 ip once a day) of the same molecule?
A: The Tumor weight was 0.789 ± 0.087 g.

Q: What about the Inhibitory rate (EMT-6 breast cancer; 90 mg·kg^−1 ip once a day) of the same molecule?
A: The Inhibitory rate was 35.94%.

Q: And the Tumor weight (EMT-6 breast cancer; 90 mg·kg^−1 ip once a day)?
A: Its Tumor weight is 0.859 ± 0.0754 g.

Q: And the Inhibitory rate (EMT-6 breast cancer; 100 mg·kg^−1 ip once a day)?
A: The Inhibitory rate was 25.80%.

Q: What about the Tumor weight (EMT-6 breast cancer; 100 mg·kg^−1 ip once a day) of the same molecule?
A: Its Tumor weight is 0.995 ± 0.0256 g.

Q: What about the “inhibitory action on BABLc mice-transplanted tumor of EMT-6” value (EMT-6 breast cancer; [1]) of the same molecule?
A: Its value is “obviously inhibitory action”.
